A short description of series [1]: Hydrophilicity-lipophilicity index for the active ingredient in single dose (Ip.a.), calculation method. To be noted: for Ip.a.: scale 0-20. An excerpt:
Where Ip.a. means the hydrophilicity-lipophilicity index for the active ingredient in single dose.
Coefficient X is equal to the solubility of the active ingredient S (mg/liter) divided by the amount of active ingredient expressed in mg per single dose (mg/dose).
A substance that is miscible in any ratio with water has an infinite water solubility, in such case considering a substance as the solute and the other as the solvent may be meaningless. Therefore, in this condition use of the above equation, which presents a horizontal asymptote, is not necessarily required. Instead, the value 20 on the scale of hydrophilicity lipophilicity is arbitrarily assigned, while the value 0, or better tending to 0, is attributed to substances considered insoluble in water.
In the case of molecules considered insoluble, the value on the solubility index scale will tend to zero, and therefore, the scale can be considered for convenience between the values 0-20.

The conditions of series [2]: cited from earlier work.
Series [3] in a line: Solubility of active ingredients in water. The class given is physicochemical. To be noted: for Solubility: 20 °C. The text has this:
The solubility (S) of a solute is the maximum amount of solute that dissolves in a fixed amount of a particular solvent at a specified temperature.

The mark [4] stands for this setting: mg per 1000 ml of water at 20° C.-25° C., 0.00001 used for practically insoluble substances.

These results are taken from patent US20160081935A1, “DOSAGE FORMS FOR ORAL ADMINISTRATION OF ACTIVE SUBSTANCES” (GIULIANI S.P.A., priority 2013, published 2016).

Converted amounts (≈) assume the structure as drawn. Read-outs that look alike come from different tables or passages of the source.

Vitamin E: in series [1] (dose 10 mg), the “X = (mg/l)/(mg/dose)” value is 0.000001 (mg/l)/(mg/dose) and the Ip.a. was 0.00000. Moreover, the Solubility entry in series [2] (in water, in words) was “practically insoluble in water”. Also, the “S” value in series [2] (setting [4]) was 0.00001 mg/L.

The molecule `Cc1cc2nc3c(=O)[nH]c(=O)nc-3n(C[C@H](O)[C@H](O)[C@H](O)CO)c2cc1C` [Riboflavin (form B), Riboflavin] had a Solubility in series [3] (riboflavin form B, in water) of 80 µg/mL (≈ 213 µM). Also, the “S” value in series [3] (riboflavin form B) is 80 mg/L.

For `Cc1cc2nc3c(=O)[nH]c(=O)nc-3n(C[C@H](O)[C@H](O)[C@H](O)CO)c2cc1C` [Riboflavin (form A), Riboflavin], in series [2] (volume of water that dissolves 1 g, varies with crystal form), the Solubility is reported as 1 g/3-15 L **.

Regarding Vitamin A, in series [1] (dose 0.1 mg), the “X = (mg/l)/(mg/dose)” value was 0.0001 (mg/l)/(mg/dose) and the Ip.a. is reported as 0.00000. In series [2] (in water, in words), the Solubility result is “practically insoluble in water”. Further, the “S” value in series [2] (setting [4]) is 0.00001 mg/L.

As for `CS(C)(=O)=O` [Dimethyl sulfone], in series [1] (dose 500 mg), the “X = (mg/l)/(mg/dose)” value was 300 (mg/l)/(mg/dose) and the Ip.a. was 20. Further, the Solubility in series [2] (at 25° C.) was 150 g/L at. Moreover, in series [2] (setting [4]), the “S” value was 150000 mg/L.

For the molecule `Oc1ccc(C=Cc2cc(O)cc(O)c2)cc1` [resveratrol], the Solubility in series [2] (in water) is 0.003 g in 100 ml.

Consider `CSCC[C@H](N)C(=O)O` [L-Methionine], for which, in series [1] (dose 300 mg), the “X = (mg/l)/(mg/dose)” value is 160 (mg/l)/(mg/dose) and the Ip.a. is given as 20. In addition, the Solubility in series [2] (at 293 K) was 48 g/l at 293 K. Further, in series [2] (setting [4]), the “S” value was 48000 mg/L.

As for `Cc1cc2nc3c(=O)[nH]c(=O)nc-3n(C[C@H](O)[C@H](O)[C@H](O)CO)c2cc1C` [Riboflavin], the Solubility in series [2] (1 g in this volume, depending on the crystalline form, Merck Index) is 3 to 15 L; in series [3] (deduced experimentally), roughly 80 µg/mL (≈ 213 µM).

Regarding `N[C@@H](Cc1ccc(O)cc1)C(=O)O` [tyrosine], the “X = (mg/l)/(mg/dose)” value in series [1] (dose 45.3 mg) is reported as 10 (mg/l)/(mg/dose); in series [1] (dose 453.0 mg) it was 1 (mg/l)/(mg/dose); in series [1] (dose 498.3 mg), 0.9091 (mg/l)/(mg/dose); in series [1] (dose 543.6 mg), 0.8333 (mg/l)/(mg/dose); in series [1] (dose 588.9 mg), 0.7692 (mg/l)/(mg/dose); in series [1] (dose 634.2 mg) it was 0.7143 (mg/l)/(mg/dose). Further, the Ip.a. is recorded as 20 in series [1] (dose 45.3 mg); 19.62 in series [1] (dose 453.0 mg); 16.85 in series [1] (dose 498.3 mg); 5.858 in series [1] (dose 543.6 mg); 0.7258 in series [1] (dose 588.9 mg); 0.08114 in series [1] (dose 634.2 mg). Further, the “S” value in series [2] (25° C.) is 453 mg/L.

For the molecule `COC1=C(OC)C(=O)C(C/C=C(\C)CC/C=C(\C)CC/C=C(\C)CC/C=C(\C)CC/C=C(\C)CC/C=C(\C)CC/C=C(\C)CC/C=C(\C)CC/C=C(\C)CCC=C(C)C)=C(C)C1=O` [Ubidecarenone], in series [1] (dose 10 mg), the “X = (mg/l)/(mg/dose)” value is given as 0.000001 (mg/l)/(mg/dose) and the Ip.a. was 0.00000. In series [2] (in water, in words), the Solubility result is given as “practically insoluble in water”. Moreover, the “S” value in series [2] (setting [4]) is 0.00001 mg/L.
